This is an account of results in US9957264B2 (Merck Sharp & Dohme Corp., priority 2013, dated 2018).

In the assay the target is JAK1 (recombinant purified GST-tagged catalytic domain) (Homo sapiens (Human), UniProt P23458). Kind of assay: Jak Biochemical HTRF Assay (JAK1). Particulars: [ATP] 31.8 μM. As to the method: Jak Biochemical HTRF Assay Protocol
The ability of compounds to inhibit the activity of JAK1, JAK2, JAK3, and Tyk2 was measured using a recombinant purified GST-tagged catalytic domain for each enzyme (Invitrogen JAK1 #M4290, JAK2 #M4290, JAK3 #M4290, Tyk2 #M4290) in an HTRF format biochemical assay. The reactions employed a common peptide substrate, LCB-[…]-NH2 (in-house). The basic assay protocol is as follows: First, 250 nL of diluted compounds in DMSO were dispensed into the wells of a dry 384-well Black plate (Greiner #781076) using a Labcyte Echo 555 acoustic dispenser. Subsequent reagent additions employed an Agilent Bravo. […] After equilibration, 2 μL of 10×ATP in 1× assay buffer was added to initiate the kinase reaction and the plates were shaken and then incubated at room temperature for 120 minutes. At the end of the incubation, 20 μL of 2× stop buffer (streptavidin-Dylight 650 (Thermo #84547B/100 mL), Eu-tagged pY20 antibody (Perkin Elmer #AD0067), EDTA, HEPES, and Triton) was added to quench the reaction. Plates were shaken and centrifuged and then incubated 60 minutes at room temperature and then read on a Perkin Elmer Envision (λex=337 nm, λem=665 and 615 nm, TRF delay time=20 μs). HTRF signal=10,000*665 nm reading/615 nm reading. After normalization to untreated controls, the percent inhibition of the HTRF signal at each compound concentration was calculated. The plot of percent inhibition versus the log of compound concentration was fit with a 4-parameter dose response equation to calculate IC50 values.
Final reaction conditions were:
Examples of the instant invention were evaluated in JAK1 and JAK2 in vitro binding assays as described above. The following table tabulates the JAK1 IC50 values and JAK2 IC50 values disclosed for the instant invention.
(Time-resolved FRET reads energy transfer from a long-lived donor to a nearby acceptor.)

Sequence of JAK1 (recombinant purified GST-tagged catalytic domain) (P23458 875-1153): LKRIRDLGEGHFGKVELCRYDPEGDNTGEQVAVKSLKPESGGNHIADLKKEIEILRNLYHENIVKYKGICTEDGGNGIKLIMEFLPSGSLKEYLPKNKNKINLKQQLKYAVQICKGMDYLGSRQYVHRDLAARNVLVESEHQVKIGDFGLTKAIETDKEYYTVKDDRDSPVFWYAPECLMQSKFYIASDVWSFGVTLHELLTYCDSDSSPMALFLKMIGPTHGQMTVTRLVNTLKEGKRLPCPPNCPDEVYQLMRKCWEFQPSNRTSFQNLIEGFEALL

Usually IC50 stands for the concentration needed to halve the response being measured. In the case of `CC1(C)Cc2cc(Nc3nn([C@]4(CC#N)CCCOC4)c4cc[nH]c(=O)c34)ccc2C1(O)C(F)(F)F` (single isomer, unassigned) [Example 5-120, 2-((S)-3-(3-((S or R)-1-hydroxy-2,2-dimethyl-1-(trifluoromethyl)-2,3-dihydro-1H-inden-5-yl)amino)-4-oxo-4,5-dihydro-1H-pyrazolo[4,3-c]pyridin-1-yl)tetrahydro-2H-pyran-3-yl)acetonitrile], the IC50 is 0.07 nM.

On to `CC(C)(C)OC(=O)[C@@H]1CC[C@@](CC#N)(n2nc(Nc3ccc4c(c3)NC(=O)C4(C)C)c3c(=O)[nH]ccc32)CO1` [Example 21-3, (2S,5S)-tert-butyl 5-(cyanomethyl)-5-(3-((3,3-dimethyl-2-oxoindolin-6-yl)amino)-4-oxo-4,5-dihydro-1H-pyrazolo[4,3-c]pyridin-1-yl)tetrahydro-2H-pyran-2-carboxylate], for which the IC50 was determined as 0.07 nM.

With `CN(C)S(=O)(=O)c1ccc(Nc2nn([C@@]3(CC#N)CCCC[C@H]3F)c3cc[nH]c(=O)c23)cc1` [Example 5-234, 4-({1-[(1R,2R)-1-(cyanomethyl)-2-fluorocyclohexyl]-4-oxo-4,5-dihydro-1H-pyrazolo [4,3-c]pyridin-3-yl}amino)-N,N-dimethyl-benzenesulfonamide], the IC50 worked out at 0.63 nM.

Turning to `CN(C)S(=O)(=O)c1ccc(Nc2nn([C@]3(CC#N)CC[C@H](N4CC(F)C4)CC3)c3cc[nH]c(=O)c23)cc1` [Example 18-30, Cis 4-((1-(1-(cyanomethyl)-4-(3-fluoroazetidin-1-yl)cyclohexyl)-4-oxo-4,5-dihydro-1H-pyrazolo[4,3-c]pyridin-3-yl)amino)-N,N-dimethylbenzenesulfonamide], the IC50 was determined as 2.62 nM.

As to `CC(C)(C)OC(=O)[C@@H]1CC[C@@](CC#N)(n2nc(Nc3ccc4nc(N5CCOCC5)ccc4c3)c3c(=O)[nH]ccc32)CO1` [Example 5-227, (2S,5S)-tert-butyl 5-(cyanomethyl)-5-(3-((2-morpholinoquinolin-6-yl)amino)-4-oxo-4,5-dihydro-1H-pyrazolo[4,3-c]pyridin-1-yl)tetrahydro-2H-pyran-2-carboxylate], the 50% inhibitory concentration (IC50) came out at 0.15 nM.

Take `CN(C)S(=O)(=O)c1ccc(Nc2nn(C3(CC#N)CCCCC3)c3cc[nH]c(=O)c23)cc1` [Example 5-79, 4-(1-(1-(cyanomethyl)cyclohexyl)-4-oxo-4,5-dihydro-1H-pyrazolo[4,3-c]pyridin-3-ylamino)-N,N-dimethylbenzene-sulfonamide]: the concentration for half-maximal inhibition (IC50) was found to be 0.78 nM.

Turning to `Cc1ccc(CN2CCC(CC#N)(n3nc(Nc4ccc(S(=O)(=O)N(C)C)cc4)c4c(=O)[nH]ccc43)CC2)cc1` [Example 8-2, 4-({1-[4-(cyanomethyl)-1-(4-methylbenzyl)piperidin-4-yl]-4-oxo-4,5-dihydro-1H-pyrazolo[4,3-c]pyridin-3-yl}amino)-N,N-dimethylbenzenesulfonamide], the IC50 was 0.44 nM.

Turning to `CC(C)(C)OC(=O)N1CCC(CC#N)(n2nc(Nc3cccc(S(C)(=O)=O)c3)c3c(=O)[nH]ccc32)CC1` [Example 5-13, tert-butyl 4-(cyanomethyl)-4-(3-{[3-(methylsulfonyl)phenyl]amino}-4-oxo-4,5-dihydro-1H-pyrazolo[4,3-c]pyridin-1-yl)piperidine-1-carboxylate], the IC50 is 0.5 nM.

`CN(C)S(=O)(=O)c1ccc(Nc2nn(C3(CC#N)CCN(C(=O)Cc4ccc(C(F)(F)F)cc4)CC3)c3cc[nH]c(=O)c23)cc1` [Example 9-16, 4-({1-[4-(cyanomethyl)-1-{[4-(trifluoromethyl)phenyl]acetyl}piperidin-4-yl]-4-oxo-4,5-dihydro-1H-pyrazolo[4,3-c]pyridin-3-yl}amino)-N,N-dimethylbenzenesulfonamide]: the 50% inhibitory concentration (IC50) came to 1.05 nM.

For `CC(C)(C)OC(=O)[C@@H]1CC[C@@](CC#N)(n2nc(Nc3ccc(C(O)(C(C)(C)C)C(F)(F)F)cc3)c3c(=O)[nH]ccc32)CO1` (single isomer, unassigned) [Example 5-166, (2S,5S)-tert-butyl 5-(cyanomethyl)-5-(4-oxo-3-((4-((S or R)-1,1,1-trifluoro-2-hydroxy-3,3-dimethylbutan-2-yl)phenyl)amino)-4,5-dihydro-1H-pyrazolo[4,3-c]pyridin-1-yl)tetrahydro-2H-pyran-2-carboxylate], the IC50 came out at 1.28 nM.

With `CC(C)NS(=O)(=O)c1ccc(Nc2nn(C3(CC#N)CCN(C(=O)OC(C)(C)C)CC3)c3cc[nH]c(=O)c23)cc1` [Example 5-288, tert-butyl 4-(cyanomethyl)-4-(3-((4-(N-isopropylsulfamoyl)phenyl)amino)-4-oxo-4,5-dihydro-1H-pyrazolo[4,3-c]pyridin-1-yl)piperidine-1-carboxylate], the IC50 worked out at 0.15 nM.

For the molecule `CC1(C)OC(=O)c2ccc(Nc3nn(C4(CC#N)CCCC4)c4cc[nH]c(=O)c34)cc21` [Example 5-126, (1-{3-[(3,3-dimethyl-1-oxo-1,3-dihydro-2-benzofuran-5-yl)amino]-4-oxo-4,5-dihydro-1H-pyrazolo[4,3-c]pyridin-1-yl}cyclopentyl)acetonitrile], the IC50 turned out to be 4.53 nM.

As to `Cc1cc(Nc2nn([C@]3(CC#N)CC[C@@H](C(=O)OC(C)(C)C)OC3)c3cc[nH]c(=O)c23)ccc1C(=O)N1CCC(O)(C(F)(F)F)C1` (single isomer, unassigned) [Example 5-161, (2S,5S)-tert-butyl 5-(cyanomethyl)-5-(3-((4-((S or R)-3-hydroxy-3-(trifluoromethyl)pyrrolidine-1-carbonyl)-3-methylphenyl)amino)-4-oxo-4,5-dihydro-1H-pyrazolo[4,3-c]pyridin-1-yl)tetrahydro-2H-pyran-2-carboxylate], the IC50 is 0.29 nM.

As to `CN(C)S(=O)(=O)c1ccc(Nc2nn(C3(CC#N)CCN(C(=O)OC4CCOCC4)CC3)c3cc[nH]c(=O)c23)cc1` [Example 11-7, tetrahydro-2H-pyran-4-yl 4-(cyanomethyl)-4-(3-((4-(N,N-dimethylsulfamoyl)phenyl)amino)-4-oxo-4,5-dihydro-1H-pyrazolo[4,3-c]pyridin-1-yl)piperidine-1-carboxylate], the half-inhibitory concentration (IC50) turned out to be 0.18 nM.

For the molecule `CC(C)(C)OC(=O)[C@H]1CC[C@](CC#N)(n2nc(Nc3ccc4c(c3)CN(C(C)(C)C)S4(=O)=O)c3c(=O)[nH]ccc32)CO1` [Example 5-42, (2R,5R)-tert-butyl 5-(3-((2-(tert-butyl)-1,1-dioxido-2,3-dihydrobenzo[d]isothiazol-5-yl)amino)-4-oxo-4,5-dihydro-1H-pyrazolo[4,3-c]pyridin-1-yl)-5-(cyanomethyl)tetrahydro-2H-pyran-2-carboxylate], the IC50 was determined as 1.6 nM.

As to `CC(C)(C)N1Cc2cc(Nc3nn([C@]4(CC#N)CCCOC4)c4cc[nH]c(=O)c34)ccc2S1(=O)=O` [Example 5-178, [(3S)-3-{3-[(2-tert-butyl-1,1-dioxido-2,3-dihydro-1,2-benzisothiazol-5-yl)amino]-4-oxo-4,5-dihydro-1H-pyrazolo[4,3-c]pyridin-1-yl}tetrahydro-2H-pyran-3-yl] acetonitrile], the IC50 was 0.04 nM.

Take `C[C@@H]1CN(C(=O)OC(C)(C)C)CC[C@]1(CC#N)n1nc(Nc2ccc(S(C)(=O)=O)cc2)c2c(=O)[nH]ccc21` (racemic) [Example 5-11, tert-butyl (3S,4S and 3R,4R)-4-(cyanomethyl)-3-methyl-4-(3-{[4-(methylsulfonyl)phenyl]amino}-4-oxo-4,5-dihydro-1H-pyrazolo[4,3-c]pyridin-1-yl)piperidine-1-carboxylate]: the IC50 stood at 0.2 nM.

With `CS(=O)(=O)c1ccc(Nc2nn(C3(CC#N)CCN(c4ccc(I)cn4)CC3)c3cc[nH]c(=O)c23)cc1` [Example 15-7, 2-(1-(5-iodopyridin-2-yl)-4-(3-((4-(methylsulfonyl)phenyl)amino)-4-oxo-4,5-dihydro-1H-pyrazolo[4,3-c]pyridin-1-yl)piperidin-4-yl)acetonitrile], the IC50 was determined as 0.17 nM.

Turning to `Cc1cc(Nc2nn([C@]3(CC#N)CC[C@@H](C(=O)OC(C)(C)C)OC3)c3cc[nH]c(=O)c23)ccc1C(=O)N1CCC(O)(C(F)(F)F)C1` (single isomer, unassigned) [Example 5-160, (2S,5S)-tert-butyl 5-(cyanomethyl)-5-(3-((4-((S or R)-3-hydroxy-3-(trifluoromethyl)pyrrolidine-1-carbonyl)-3-methylphenyl)amino)-4-oxo-4,5-dihydro-1H-pyrazolo[4,3-c]pyridin-1-yl)tetrahydro-2H-pyran-2-carboxylate], the IC50 came out at 0.22 nM.

With `N#CC[C@]1(n2nc(Nc3ccc4c(c3)CN(C3CCNCC3)S4(=O)=O)c3c(=O)[nH]ccc32)CCOC[C@H]1F` (single isomer, unassigned) [Example 5-271, 2-[(3S,4S or 3R,4R)-4-(3-{[1,1-dioxo-2-(piperidin-4-yl)-3H-1,2-benzothiazol-5-yl]amino}-4-oxo-5H-pyrazolo[4,3-c]pyridin-1-yl)-3-fluorooxan-4-yl]acetonitrile], the 50% inhibitory concentration (IC50) came to 0.25 nM.
